Test results: patent US20240299383A1, “IMMUNOMODULATOR COMPOSITION COMPRISING AZVUDINE” (HENAN GENUINE BIOTECH CO., LTD., priority 2023, published 2024)

Key:
[1] = test system: CT26 cells; assay: Anti-tumor effect of azvudine in CT-26 tumor-bearing mice with severe immunodeficiency; type: in vivo; conditions: mice with severe immunodeficiency (B-NDG), o.p., QD×2 W
[2] = test system: CT26 cells; assay: Anti-tumor effect of azvudine in CT26 tumor-bearing mice with normal immune function; type: in vivo, BALB/c mouse; conditions: mice with normal immunity (BALB/c), o.p., QD×2 W
[3] = test system: B-cell lymphoma A20; assay: Azvudine in combination with PD-1 antibody in B-cell lymphoma A20 tumor-bearing mouse model; type: in vivo
Text: The effect of azvudine in combination with PD-1 antibody on the B-cell lymphoma A20 tumor-bearing mouse model was further studied.

[4] = test system: immune cells in CT26 tumor; assay: Infiltration of immune cells in tumor by flow cytometry, CT26 tumor model; type: in vivo, BALB/c mice
Experimental: Tumor tissue was washed once with PBS, and removed of fat. The tumor tissue was quickly cut into small pieces. The chopped tumor tissue was transferred to a tube C containing 5 mL of digestive enzyme mixed solution. The tube C was put in a tissue processor, the tissue fragments were ensured to be submerged in the digestive enzyme, and the program m_imptumor_01_01 was performed. The sample was put in a water bath shaker at 37° C. for 30 min of digestion. After the digestion was completed, the program m_imptumor_01_01 was performed again, and then an appropriate amount of PBS containing 2% fetal bovine serum was added to terminate the digestion. The obtained mixture was filtered with a […] cell mesh to remove residual tissue, and washed with PBS. An appropriate volume of PBS was added according to the amount of cell precipitate to resuspend cells. Then the cells were gently blown evenly, and counted with a hemocytometer. An appropriate amount of cells were taken out and stained with antibodies.
The cells were resuspended with PBS to a concentration of 1×10^6 cells/100 μL. The cell suspension was added to a 96-well V-bottom plate at 100 μL per well. The plate was centrifuged at 450 g at 4° C. for 5 min, and the supernatant solution was discarded. The cells were resuspended with 100 μL of prepared Zombie NIR Live/Dead solution, then cultured at 4° C. in the dark for 30 min, and then washed twice with PBS. Then the cells in each well were resuspended with 50 μL of staining buffer containing Fc receptor inhibitor (1 μL of Fc receptor inhibitor+49 μL of staining buffer), and cultured at 4° C. in the dark for 5 min. Then the cells in each well were resuspended with 50 μL of Brilliant staining buffer containing Pacific Orange CD8, BV605 MHCII, BV650 CD25, BV750 CD45, BV785 Ly6C, AF488 CD11c, AF532 CD11b, PE-DZL594 CD49b, APC Ly6G, APC-Cy5.5 CD4, APC-Cy7 CD13, BV42 CD69 (or an isotype control antibody thereof), and cultured at 4° C. in the dark for 30 min. After staining was completed, the cells were washed twice with 200 μL of staining buffer.
The cells in each well were resuspended with 100 μL of Fixation/Permeabilization, and cultured at 4° C. in the dark for 30 min. After permeabilization was completed, the cells were washed twice with 200 μL of Permeabilization buffer. The cells were resuspended with 100 μL of Permeabilization buffer containing Fc receptor inhibitor, and cultured at 4° C. in the dark for 5 min. Then the cells were directly added with intracellular antibodies PE-Cy7 FoxP3 and PE Ki67 (or an isotype control antibody thereof), and cultured at 4° C. in the dark for 30 min. After staining was completed, the cells were washed twice with 200 μL of Permeabilization buffer, and resuspended with 200 μL of staining buffer. The flow cytometry detection was completed within 24 h.
The flow cytometry data was analyzed using FlowJo, SPSS and Graphpad Prism softwares, specifically including the following: • 1) The proportion of CD45+ cells in living cells of tumor tissue; • 2) The ratio of T, CD4+T, CD8+T, Treg, Myeloid, DC, NK, PMN-MDSC and M-MDSC in CD45+ cells; • 3) The ratio of CD8+T to Treg and the ratio of CD4+Teff to Treg; • 4) The CD69 positive rate and median fluorescence intensity (MFI) in T, CD4+T, and CD8+T cells; • 5) The Ki67 positive rate and median fluorescence intensity (MFI) in T, CD4+T, CD8+ and T cells; • 6) The number of T, CD4+T, CD8+T, Treg, Myeloid, DC, NK, PMN-MDSC, M-MDSC, and white blood cells per 100 mg of tumor tissue;
In this experiment, the CT26 tumor model was established on BALB/c mice, and the mice were treated with azvudine at different doses (0.25 mg/kg, 1 mg/kg). Tumor samples were collected. Then the proportion of each immune cell subset and the activation and proliferation of T, CD4+T and CD8+T were detected by flow cytometry.

[5] = test system: cytokines (GM-CSF, MCP-1, IFNγ, IFNβ, TNFa, IL2, IL4, IL8, IL10); assay: Release level of cytokines in serum and tumor tissue by MSD method, CT26 tumor model; type: in vivo, BALB/c mice; conditions: vs Vehicle
Experimental: CT26 cells were cultured in RPMI 1640 medium containing 10% fetal bovine serum at 37° C. in a 5% CO2 incubator. The cells were passaged routinely once a week. When the cell saturation reached 80%-90% and the cell number achieved the requirement, the cells were collected, counted and inoculated.
Animals were BALB/c female mice, 8 weeks old and weighing 18.5-22.9 g, which were provided by Shanghai Lingchang Biotechnology Co., Ltd.
0.1 mL (0.3×10^6) of CT26 cells were subcutaneously inoculated into each mouse. When the average tumor volume reached 101 mm^3, the mice were grouped and administered.
• 1) Quick-frozen tissue samples were taken out from the −80° C. refrigerator. • 2) On dry ice, part of the tumor tissue (about 50-100 mg) were cut out, and put into a 2 mL centrifuge tube with steel beads. Then the tube was added with 350 μL of cell lysis solution RIPA (in which 1% protease inhibitor and phosphatase inhibitor had been freshly added). • 3) The tissue was crushed with Tissue grinder at the highest frequency for 5 min. • 4) The tissue lysate was put on ice for 30 min. • 5) The tissue lysate was centrifuged at 12,000 rpm at 4° C. for 10 min. The supernatant was collected and put into a new 1.5 mL centrifuge tube.
• 1) The protein extract was diluted 50 times (2 μL of protein extract+98 μL of RIPA cell lysis buffer). • 2) Standard product and diluted samples were added at 10 μL/well in a 96-well transparent plate. • 3) Preparation of working solution: Reagent A and reagent B were mixed at a ratio of 50:1. 200 μL of the mixture was added to each well. • 4) The 96-well transparent plate was incubated at 37° C. for 30 min. • 5) The OD value at 562 nm was detected by a microplate reader, and then the tumor protein was quantified according to the OD result. • 6) The total protein concentration of the tumor samples was uniformly 2 mg/mL. • 7) The protein was quantified with BCA quantification kit. • 8) According to the quantitation results, the sample protein concentration was uniformly diluted to 2 μg/μL with RIPA lysis solution. • 9) MSD experiment was performed or the diluted samples were stored in a −80° C. refrigerator.
• 1) Preparation of standard product: 250 μL of Diluent 43 diluent was added to the standard product. The mixture was mixed well, and left to stand at room temperature for 15-30 min, and serially diluted by 4 times using Diluent 43 to obtain standard products Nos. 1-7. Diluent 43 was standard product No. 8. • 2) Sample dilution: The samples were diluted with Diluent 43. • 3) Antibody dilution: 100× antibody stock solution was diluted to 1×. • 4) Buffer preparation: 5× buffer was diluted to 1× with deionized water.
• 1) 200 μL of each biotin antibody was added to 300 μL of the designated linker. The resulting mixture was stirred by vortex and incubated at room temperature for 30 min. • 2) 200 μL of stop solution was added. The resulting mixture was stirred by vortex and incubated at room temperature for 30 min. • 3) 600 μL of each U-PLEX Linker-Coupled antibody solution (10×) was mixed into a tube and mixed by vortex. • 4) When the number of binding antibodies was less than 10, the solution was supplemented to 6 ml with stop solution. • 5) 50 μL of multiplex coating solution was added to each well. The plate was sealed with an adhesive board, and shaken at room temperature for 1 h. • 6) The wells were washed 3 times with 1× MSD wash Buffer at 150 μL/well. • 7) Standard product and detection antibody solutions were prepared. • 8) 25 μL of Diluent 43 was added to each well. • 9) 25 μL of prepared standard product, tissue sample or serum sample was added to each well. The plate was sealed with an adhesive board, and incubated at room temperature for 1 h. • 10) The wells were washed 3 times with 1× MSD wash Buffer at 150 μL/well. • 11) 50 μL of detection antibody solution was added to each well. […]

[6] = test system: murine colorectal cancer CT-26 cell line; assay: Azvudine in combination with PD-1 antibody in murine colorectal cancer CT-26 homograft tumor model; type: in vivo, BALB/c female mouse; conditions: for T/C (%) / TGI(%): tumor volume on the 17th day; for T/Cweight (%): 17th day
Text: Further, the anti-tumor effect of azvudine in combination with PD-1 antibody on BALB/c female mouse subcutaneously xenografted with murine colorectal cancer CT-26 cell line animal model was studied.

[7] = 0.25 mg/kg and 1 mg/kg PO QD × 5D, dose-dependent
[8] = after administration, 0.25 and 1 mg/kg, vs control group
[9] = high-dose group (1 mg/kg PO QD × 5D)
[10] = tumor tissue, 0.25 mg/kg and 1 mg/kg PO QD × 5D, certain dose-dependency

In the case of `[N-]=[N+]=N[C@]1(CO)O[C@@H](n2ccc(N)nc2=O)[C@@H](F)[C@@H]1O` [Azvudine], the “IR(%)” value ([1]; 0.25 mpk) is reported as 9.4%, the “TGI(%)” value ([1]; 0.25 mpk) is reported as 13% and the “IR(%)” value ([1]; 1 mpk) is reported as 49.2%. For the same compound, the “TGI(%)” value ([1]; 1 mpk) was 53%, the “IR(%)” value ([2]; 0.25 mpk) was 57.5% and the “TGI(%)” value ([2]; 0.25 mpk) was 63%. The “IR(%)” value ([2]; 1 mpk) was 84.5%, the “TGI(%)” value ([2]; 1 mpk) was 94% and the “IR(%)” value ([3]; Azvudine single drug, 1 mpk) was 70.8%. The “TGI(%)” value ([3]; Azvudine single drug, 1 mpk) was 70%, the “inhibitory activity on the B-cell lymphoma A20 tumor-bearing mice” value ([3]; administered alone) was “certain inhibitory activity” and the TGI ([3]; azvudine 2 mg/kg) was 88%. The “infiltration of immune cells in the tumor” value ([4]; 0.25 mg/kg and 1 mg/kg PO QD × 5D, vs control group) was “increased”, the “infiltration of CD8+T cells in the tumor” value [4, 7] was “increase” and the “infiltration of NK cells in the tumor” value [4, 7] was “increase”. The “other cell subsets after administration” value ([4]; 0.25 and 1 mg/kg, compared with the control group) was “no significant change”, the “expression level of CD69 in T, CD4+ T, and CD8+ T cells” value [4, 8] was “no significant difference” and the “expression level of Ki67 in T, CD4+ T, and CD8+ T cells” value [4, 8] was “no significant difference”. For the same compound, the “proportion of M-MDSC cells” value [4, 9] was “significant reduction”, the “proportion of PMN-MDSC cells” value [4, 9] was “significant reduction” and the “proportion of myeloid cells” value [4, 9] was “significantly reduced”. The “ratio of CD4Teff/Treg” value [4, 9] was “significantly increased”, the “ratio of CD8T/Treg” value [4, 9] was “significantly increased” and the “CD8T/Treg and CD4Teff/Treg ratios and proportion of myeloid, M-MDSC, PMN-MDSC cells” value ([4]; low-dose group (0.25 mg/kg PO QD × 5D), compared with high-dose group) was “same trend”. For the same compound, the “release of MCP-1” value ([5]; serum samples, 0.25 mg/kg PO QD × 5D, 2 h after last administration) was “significantly reduced”, the “release of IL8” value ([5]; serum samples, 0.25 mg/kg and 1 mg/kg PO QD × 5D) was “significantly reduced” and the other cytokines ([5]; serum samples, 0.25 mg/kg and 1 mg/kg) was “no significant change”. For the same compound, the “release of IFN-β” value [5, 10] was “decreased”, the “release of IFNγ” value [5, 10] was “increased” and the “release of TNFα” value [5, 10] was “increased”. The “Tumor weight (mg) (On the 17th day)” value ([6]; Azvudine 0.25 mg/kg) was 848 ± 210 mg, the “Tumor volume (mm^3) on the 17th day” value ([6]; Azvudine 0.25 mg/kg p.o. QD × 18 days) was 768 ± 74 mm^3 and the “Tumor volume (mm^3) on the 17th day” value ([6]; Azvudine 0.25 mg/kg p.o. QD × 18 days, listed as azvudine) was 768 mm^3. The “T/C (%)” value ([6]; Azvudine 0.25 mg/kg p.o.) was 39.18%, the “TGI(%)” value ([6]; Azvudine 0.25 mg/kg p.o.) was 63.26% and the “T/Cweight (%)” value ([6]; Azvudine 0.25 mg/kg) was 42.52%. For the same compound, the “Tumor weight (mg) (On the 17th day)” value ([6]; Azvudine 0.5 mg/kg) was 386 ± 256 mg, the “Tumor volume (mm^3) on the 17th day” value ([6]; Azvudine 0.5 mg/kg p.o. QD × 18 days) was 347 ± 77 mm^3 and the “Tumor volume (mm^3) on the 17th day” value ([6]; Azvudine 0.5 mg/kg p.o. QD × 18 days, listed as azvudine) was 347 mm^3. The “T/C (%)” value ([6]; Azvudine 0.5 mg/kg p.o.) was 17.63%, the “TGI(%)” value ([6]; Azvudine 0.5 mg/kg p.o.) was 84.85% and the “T/Cweight (%)” value ([6]; Azvudine 0.5 mg/kg) was 19.37%.
